# Reference: patent US20250206779A1, “ANGIOTENSIN-(1-9) ANALOGUE BASED ON D AMINO ACIDS, PHARMACEUTICAL COMPOSITIONS AND USES THEREOF” (UNIVERSIDAD DE CHILE, priority 2021, published 2025)
# Where a SMILES comes first, the peptide text is derived from it. [ ]: non-standard residue; d: D form.
# Legend:
# [1] = test system: spontaneously hypertensive rats (SHR); experiment: Blood pressure in spontaneously hypertensive rats; format: in vivo, rat; details: SHR, 300, 600, 1200 ng/kg/min, osmotic minipumps, 14 days
# Experimental: Experimental animal model. All procedures were performed in accordance with the Guide for the Care and Use of Laboratory Animals published by the U.S. National Institutes of Health (NIH Publication 85 23, 1985) and approved by our Institutional Bioethics Committee. The animals were housed under the continuous professional monitoring of the Medical Veterinary staff in the animal facility of the Pontificia Universidad Católica de Chile, under the following conditions: 12-h light-dark cycle; 21° C. ambient temperature; 50% humidity; adequate ventilation; noise-free environment; and food and water ad libitum. Male spontaneously hypertensive rats (SHR, age 12 weeks) and normotensive Wistar Kyoto rats (WKY, 12 weeks age) were used. […] Systolic blood pressure (SBP), diastolic blood pressure (DBP) and body weight (BW) were measured at the end of the treatment period and the animals were then sacrificed.
# Hemodynamic evaluations. SBP and DBP were measured twice per week by a researcher blinded to study group, using a CODA 2 noninvasive pressure device with volume-pressure recording (Kent Scientific Corporation, Torrington, CT, USA). […]
# cardiomyocytes = experiment: Norepinephrine-induced cardiomyocyte hypertrophy, cell area and perimeter; format: cell-based, rat; details: 100 μM peptide, norepinephrine 10 μM
# Experimental: Cardiac myocytes were isolated from neonatal Sprague-Dawley rat ventricles. Cardiac myocytes were plated at 70% final density in gelatin-coated wells (12-well plates) or in 60-mm Petri dishes and maintained at 37° C. in a humidified atmosphere of 5% CO2/95% air for 24 h in Dulbecco's Modified Eagle's medium [(DMEM)/M199](4:1) containing 10% fetal bovine serum and 5% fetal calf serum. Serum was withdrawn 24 h before preincubation with 1, 10 or 100 μM retro-inverse angiotensin-(1-9) for 1 h; then, 10 μM norepinephrine (Sigma, St Louis, Missouri, USA) were added and the cultures were incubated for 24 h. […] After centrifugation at 12,000 r.p.m. for 15 min at 4° C., the supernatat was recovered; total protein content was determined by using Bradford (BioRad protein assay, BioRad, Hercules, CA, USA). […]
# Cardiomyocyte hypertrophy is characterized by an increase of cell area and perimeter. Cell area and perimeter were analyzed as follows. […] Cell area and perimeter were determined in cells fixed with 4% paraformaldehyde for 10 min and permeabilized with 0.2% Triton X100 for 6 min. […] Cell staining was evaluated by epifluorescence microscopy. At least 100 cells from randomly selected fields were analyzed using Image J software (NIH). […]
# [2] = test system: neonatal rat ventricular myocytes (NRVM); experiment: Cardiomyocyte death by simulated ischemia/reperfusion (LDH release, procaspase 3 cleavage); format: cell-based
# Experimental: Neonatal rat ventricular myocytes (NRVM) were isolated from one- to three-day-old Sprague Dawley rats. Cells were pre-plated to discard non-myocyte cells and the myocyte-enriched fraction was plated on gelatin-precoated 35 mm dishes and grown in DMEM/M199 (4:1) medium with 10% (w/v) fetal bovine serum (FBS) and […] bromodeoxyuridine for 24 h before the experiments. Ischemia was induced by incubating the cardiomyocytes in ischemia-mimicking solution (ischemic medium) containing HEPES 5 mM, 2-deoxy-D-glucose 10 mM, NaCl 139 mM, KCl 12 mM, MgCl2 0.5 mM, CaCl2 1.3 mM and lactic acid 20 mM, pH 6.2, under O2<1%, 5% CO2 and 95% nitrogen at 37° C. for 8 h. Subsequently for simulated reperfusion, ischemia-mimicking solution was replaced by DMEM/M199 (4:1) containing 10% (w/v) FBS and NRVM were incubated for 16 h in 95% air and 5% CO2. Parallel NRVM were assigned to a control group which was exposed to normoxic conditions in a control medium containing (in mM) 5 HEPES 5 mM, D-glucose 23 mM, NaCl 139 mM, KCl 4.7 mM, MgCl2 0.5 mM, CaCl2 1.3 mM, pH 7.4 under 95% air and 5% CO2 for 8 h. Then, control medium was replaced with DMEM/M199 (4:1) containing 10% (w/v) FBS under 95% air and 5% CO2 for 16 h.
# For the evaluation of necrosis, the activity of lactate dehydrogenase (LDH) was measured spectrophotometrically at 490 nm in samples of the culture medium after normoxia (control) and sl/R both at 8 h and 16 h, using the kit CytoTox 96® Non-Radioactive Cytotoxicity Assay, Promega (Corp., Madison, WI, USA), according to the manufacturer's instructions. Apoptosis was evaluated by measuring procaspase 3 cleavage to caspase 3 by western blotting.
structure (smiles),measurement,setting,value
"CC[C@@H](C)[C@@H](NC(=O)[C@@H](Cc1c[nH]cn1)NC(=O)[C@H]1CCCN1C(=O)[C@@H](Cc1ccccc1)NC(=O)[C@H](N)Cc1c[nH]cn1)C(=O)N[C@H](Cc1ccc(O)cc1)C(=O)N[C@@H](C(=O)N[C@H](CCCNC(=N)N)C(=O)N[C@H](CC(=O)O)C(=O)O)C(C)C [retro-inverse angiotensin-(1-9), NH2-^DH^DF^DP^DH^DI^DY^DV^DR^DD-COOH] (H-[dH][dF][dP][dH][dI][dY][dV][dR][dD]-OH)",diastolic blood pressure (DBP),[1],reduced SBP and DBP in a dose-dependent manner
same,systolic blood pressure (SBP),[1],reduced SBP and DBP in a dose-dependent manner
same,increase of cell area induced by norepinephrine,cardiomyocytes,"inhibited, in a dose response manner"
same,increase of cell perimeter induced by norepinephrine,cardiomyocytes,"inhibited, in a dose response manner"
same,cardiomyocyte apoptosis induced by ischemia reperfusion (procaspase 3 cleavage),"[2]; 10 μM peptide, western blotting",inhibited
same,cardiomyocyte necrosis induced by ischemia reperfusion (LDH release),[2]; 1 and 10 μM peptide,Significative necrosis inhibition
same,cardiomyocyte necrosis induced by ischemia reperfusion (LDH release),[2]; simulated ischemia 8 h / reperfusion 16 h,inhibited in a dose response manner
